Assay results taken from the supplement of paper PMC10307832.

Experiments:
Experiment in all cases: relative viability (nuclei count vs DMSO), 5 days (fraction); higher = more cells survive
AZD1208 + Trametinib = compound: N[C@@H]1CCCN(c2c(/C=C3\SC(=O)NC3=O)cccc2-c2ccccc2)C1 [AZD1208] + CC(=O)Nc1cccc(-n2c(=O)n(C3CC3)c(=O)c3c(Nc4ccc(I)cc4F)n(C)c(=O)c(C)c32)c1 [Trametinib] (partner 0.02 µM)
Summary of the method: (§1)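 Dosing by pin tool came one day after lung cancer cell lines were seeded in 1536-well plates, using either one drug or a fixed anchor-drug dose plus five library-drug doses (not always all listed) in √10 steps. After 5 days, nuclei were counted on 4× images. Relative viability is treated-well nuclei count divided by vehicle-well nuclei count, and values are medians of duplicate plates.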

AZD1208 + Foretinib = compound: N[C@@H]1CCCN(c2c(/C=C3\SC(=O)NC3=O)cccc2-c2ccccc2)C1 [AZD1208] + COc1cc2c(Oc3ccc(NC(=O)C4(C(=O)Nc5ccc(F)cc5)CC4)cc3F)ccnc2cc1OCCCN1CCOCC1 [Foretinib] (partner 0.25 µM)
Summary of the method: as §1

AZD1208 + Pictilisib = compound: N[C@@H]1CCCN(c2c(/C=C3\SC(=O)NC3=O)cccc2-c2ccccc2)C1 [AZD1208] + CS(=O)(=O)N1CCN(Cc2cc3nc(-c4cccc5[nH]ncc45)nc(N4CCOCC4)c3s2)CC1 [Pictilisib] (partner 1 µM)
Summary of the method: as §1

XMD14-99 + Dasatinib = compound: CN1CCN(CC1)C2=CC(=C(C=C2)NC3=NC(=C(S3)C(=O)C4=C(C=CC=C4Cl)Cl)N)OC [XMD14-99] + Cc1nc(Nc2ncc(C(=O)Nc3c(C)cccc3Cl)s2)cc(N2CCN(CCO)CC2)n1 [Dasatinib] (partner 0.075 µM)
Summary of the method: as §1

Cell Line	relative viability (AZD1208 + Trametinib; first compound 0.08 µM)	relative viability (AZD1208 + Trametinib; first compound 0.253 µM)	relative viability (AZD1208 + Trametinib; first compound 0.8 µM)	relative viability (AZD1208 + Trametinib; first compound 2.53 µM)	relative viability (AZD1208 + Trametinib; first compound 8 µM)	relative viability (AZD1208 + Foretinib; first compound 0.08 µM)	relative viability (AZD1208 + Foretinib; first compound 0.253 µM)	relative viability (AZD1208 + Foretinib; first compound 0.8 µM)	relative viability (AZD1208 + Foretinib; first compound 2.53 µM)	relative viability (AZD1208 + Foretinib; first compound 8 µM)	relative viability (AZD1208 + Pictilisib; first compound 0.08 µM)	relative viability (AZD1208 + Pictilisib; first compound 0.253 µM)	relative viability (AZD1208 + Pictilisib; first compound 0.8 µM)	relative viability (AZD1208 + Pictilisib; first compound 2.53 µM)	relative viability (AZD1208 + Pictilisib; first compound 8 µM)	relative viability (XMD14-99 + Dasatinib; first compound 0.08 µM)	relative viability (XMD14-99 + Dasatinib; first compound 0.8 µM)	relative viability (XMD14-99 + Dasatinib; first compound 2.53 µM)	relative viability (XMD14-99 + Dasatinib; first compound 8 µM)
NCI-H441	0.515	0.547	0.327	0.405	0.446	1.1	0.761	0.764	0.712	0.718	0.343	0.427	0.34	0.314	0.305	0.537	0.493	0.463	0.504
NCI-H23	0.361	0.301	0.272	0.347	0.303	0.914	0.648	0.9	0.967	0.748	0.413	0.561	0.327	0.358	0.335	0.787	0.777	0.724	0.636
NCI-H650	0.852	0.904	1.1	0.93	0.743	1.03	1.03	0.977	0.9	0.829	0.83	0.783	0.793	0.589	0.589	0.467	0.422	0.451	0.356
SK-MES-1	0.47	0.509	0.54	0.533	0.482	0.84	0.949	0.817	0.769	0.661	0.257	0.326	0.303	0.3	0.291	0.381	0.398	0.336	0.225
NCI-H2170	0.966	1	0.869	0.868	0.57	1.07	1.07	1.08	1.03	0.878	0.319	0.263	0.254	0.213	0.224	0.612	0.62	0.601	0.592
NCI-H2087	0.219	0.167	0.159	0.227	0.193	1.17	1.26	0.89	0.977	0.988	0.665	0.842	0.654	0.561	0.732	0.739	0.714	0.55	0.305
NCI-H838	0.482	0.629	0.448	0.476	0.457	1.03	1	0.939	1.02	0.946	0.374	0.427	0.343	0.378	0.366	0.303	0.324	0.245	0.216
NCI-H460	0.137	0.189	0.138	0.109	0.124	0.992	1.09	0.978	0.987	1.11	0.341	0.322	0.289	0.308	0.37	0.497	0.545	0.475	0.475
LOU-NH91	0.785	0.786	0.759	0.825	0.728	0.943	0.876	0.874	0.93	0.909	0.503	0.485	0.503	0.494	0.517	0.591	0.584	0.541	0.472
NCI-H322M	0.49	0.487		0.566	0.578	0.925	0.873	0.869	0.966	0.996	0.494	0.466	0.463	0.474	0.547	0.275	0.252	0.257	0.248
NCI-H520	0.633	0.678	0.279	0.55	0.502	0.746	0.754	0.656	0.612	0.396	0.238	0.278	0.201	0.185	0.184	0.171	0.21	0.176	0.169
NCI-H661	0.549	0.565	0.544	0.543	0.514	0.979	1.15	1.04	0.994	0.951	0.417	0.391	0.34	0.342	0.355	0.976	0.86	0.828	0.627
NCI-H727	0.413	0.325	0.352	0.395	0.39	0.843	0.938	0.737	0.533	0.781	0.355	0.297	0.262	0.264	0.355	0.322	0.273	0.309	0.23
NCI-H1793	0.356	0.566	0.33	0.473	0.342	0.578	0.653	0.545	0.749	0.631	0.362	0.212	0.257	0.385	0.276	0.403	0.362	0.355	0.334
NCI-H1734	0.659	0.583	0.535	0.525	0.434	0.773	0.814	0.738	0.755	0.56	0.393	0.373	0.347	0.343	0.293	0.394	0.448	0.481	0.423
